# Patent US7628765B2, “Increasing retrievable cells from a breast duct” (Cytyc Corporation, priority 2001, dated 2009)
# Test system: breast ducts of live rabbits
# Assay: Ductal fluid collection after intraductal injection of mannitol solution in live rabbit
# Assay type: in vivo, New Zealand rabbit
# Conditions: for recovery: out-flow liquid checked about an hour later
# Protocol: The objective of these experiments was to test the effects of the introduction of a solution containing mannitol on the secretion of fluid from the breast ducts of live rabbits. New Zealand rabbit #3242, female, from Kraelik Farm in CA weighing 4.1 kg was used. The rabbit was anesthetized by injection of 200 mg of ketamine and 40 mg of Zylazine. A second injection of 100 mg of ketamine and 20 mg of xylazine was made 2 hours later to maintain the rabbit in a deep plane of anesthesia. The thorax and abdomen of the rabbit was shaved to expose the breasts and nipples.
# A single lumen blue color catheter (O.D. 0.23″ ID 0.017; O.D. at the tip 0.011″-0.012″) was inserted into a duct in each nipple. Three nipples were tested, and 2 ducts per nipple were accessed with a catheter. The nipples were identified A, B, and C.
# A duct on nipple A was injected with 0.20 ml of a 12.5% solution of D-Mannitol in H2O (available from Sigma Chemicals, St. Louis, Mo. cat# M-9546 lot 6710402: C6H14O6 FW 182.2) with a single catheter. The control duct on nipple A was injected with 0.20 ml of phosphate buffered saline (PBS). A microfuge tube was attached to the end of each catheter to collect out flow liquid. Ten minutes later 0.2 ml of a 12.5% solution of D-Mannitol in H2O was injected into the first duct and the second duct was injected with 0.20 ml of phosphate buffered saline, for a total volume injected in each duct of 0.40 ml.
# A duct on nipple B was injected with 0.5 ml of a 12.5% solution of D-Mannitol in H2O with a single catheter. The control duct on nipple B was injected with 0.50 ml of phosphate buffered saline (PBS). A microfuge tube was attached to the end of each catheter to collect out-flow liquid.
# A duct on nipple C was injected with 0.7 ml of a 12.5% solution of D-Mannitol in H2O with a single catheter. The control duct on nipple C was injected with 0.70 ml of phosphate buffered saline (PBS). A microfuge tube was attached to the end of each catheter to collect out flow liquid.
# About an hour after the fluid containing mannitol or PBS was injected into the ducts via the catheters, the microfuge tubes were checked for whether any fluid was returned.
structure (smiles),measurement,setting,value
"OC[C@@H](O)[C@@H](O)[C@H](O)[C@H](O)CO [mannitol, D-Mannitol]",ducts from which fluid can be collected,"ducts injected with 12.5% mannitol solution, 0.4-0.7 ml, PBS control 1 out of 3",three out of three
same,recovery,"nipple A, duct A1, 0.4 ml total of 12.5% solution (2 x 0.2 ml, 10 min apart) injected intraductally",310 ul liquid
same,recovery,"nipple B, duct B1, 0.5 ml of 12.5% solution injected intraductally",490 ul liquid
same,recovery,"nipple C, duct C1, 0.7 ml of 12.5% solution injected intraductally",280 ul liquid
